From patent US6479487B1, “6, 9-disubstituted 2-[trans-(4-aminocyclohexyl)amino] purines” (Aventis Pharmaceuticals Inc., priority 1998, dated 2002)
Several values for one entry are separate records, joined by “and”; a condition that tells them apart may be missing. Equal entries are not always repeated. Structures can show the parent of a compound that is named as a salt. Where two headings read alike, the source gives them in different places.

What was measured:
cdk4/cyclin D1 = target: T1, cdk4/cyclin D1 (Homo sapiens, UniProt P11802); assay: Cyclin-dependent Kinase 4 Assay (cdk4/cyclin D1, GST-Rb substrate); format: biochemical; details: cdk4/cyclin D1 insect cell lysate, 10 μM ATP, 30 min at 37° C., several values = separate determinations, read-out: CDK4 Inhibition IC50
T1 construct: made in house; host or cells: Sf9 insect cells (Bac-to-Bac baculovirus, pFastBac)
T1 sequence (P11802 whole entry): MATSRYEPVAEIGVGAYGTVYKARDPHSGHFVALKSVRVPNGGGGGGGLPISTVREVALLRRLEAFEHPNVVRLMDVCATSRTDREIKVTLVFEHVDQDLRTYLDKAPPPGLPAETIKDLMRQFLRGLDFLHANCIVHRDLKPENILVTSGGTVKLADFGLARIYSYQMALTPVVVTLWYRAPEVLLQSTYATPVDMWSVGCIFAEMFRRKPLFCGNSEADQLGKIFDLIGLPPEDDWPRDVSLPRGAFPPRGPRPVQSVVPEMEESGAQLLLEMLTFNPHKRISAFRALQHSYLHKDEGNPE
T1 sequence (P24385 whole entry partner): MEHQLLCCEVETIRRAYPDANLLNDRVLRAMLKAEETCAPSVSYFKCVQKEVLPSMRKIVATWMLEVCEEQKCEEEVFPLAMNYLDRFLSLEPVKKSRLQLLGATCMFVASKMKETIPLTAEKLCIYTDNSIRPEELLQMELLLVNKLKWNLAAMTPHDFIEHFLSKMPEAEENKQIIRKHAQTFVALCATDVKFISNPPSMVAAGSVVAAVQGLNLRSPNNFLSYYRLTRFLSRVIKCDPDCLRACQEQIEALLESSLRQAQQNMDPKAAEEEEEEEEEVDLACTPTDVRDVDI
Procedure, shortened: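 Insect-cell lysate of coexpressed cdk4/cyclin D1 (0.1 μg) acts on GST-Rb (0.5 μg) bound to glutathione-Sepharose, in 50 mM HEPES pH 7.5, 10 mM MgCl2, 1 mM EGTA. Reaction runs 30 min at 37 °C, then is stopped by filtration and TNEN washes. Rb phosphorylation read by scintillation counting; IC50 derived.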

A549 = assay: In vitro tumor cell proliferation, A549; format: cell-based, human; details: many values given with an undefined *, read-out: In vitro Tumor Cell Proliferation (IC50, μM) Lung A549
Procedure, shortened: (§1)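 Growth was quantified by sulforhodamine B staining of TCA-fixed cells after 3 days of drug plus 4 more days with fresh drug, or by CyQUANT after 3 days of drug and freezing at −80° C. Counted viable cells were plated and incubated overnight at 37° C before drug.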

PC-3 = assay: In vitro tumor cell proliferation, PC-3; format: cell-based, human; details: many values given with an undefined *, read-out: In vitro Tumor Cell Proliferation (IC50, μM) Prostate PC-3
Procedure, shortened: as §1

DMS-114 = assay: In vitro tumor cell proliferation, DMS-114; format: cell-based, human; details: many values given with an undefined *, read-out: In vitro Tumor Cell Proliferation (IC50, μM) Lung DMS-114
Procedure, shortened: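 Human small cell lung carcinoma DMS-114 cells plated overnight, then drug-treated for 3 days, medium and drug renewed, and incubated 4 more days. Growth read by sulforhodamine B staining after TCA fixation; alternatively by CyQUANT after 3 days' drug exposure and freezing at −80 °C.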

MDA-MB-231 = assay: In vitro tumor cell proliferation, MDA-MB-231; format: cell-based, human; details: sulforhodamine B or CyQUANT assay, many values given with an undefined *, read-out: In vitro Tumor Cell Proliferation (IC50, μM) Breast MDA-MB-231
Procedure, shortened: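 Cells plated overnight at 37 °C, then exposed to drug for 3 days, refed with fresh drug and incubated 4 more days. Read-out by sulforhodamine B staining after TCA fixation; alternatively, CyQUANT after 3-day drug exposure and freezing at −80 °C.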

cdk2/cyclin E = target: T2, cdk2/cyclin E (Homo sapiens, UniProt P24941); assay: Cyclin-Dependent Kinase 2 Assay (cdk2/cyclin E, GST-Rb substrate); format: biochemical; details: recombinant cdk2/cyclin E, 10 μM ATP, 30 min at 30° C., several values in a cell = separate determinations, read-out: CDK-2 Inhibition IC50
T2 construct: made in house; host or cells: insect cells (baculovirus co-infection)
Method: Substrate: GST-Rb as described above for cdk4/cyclin D1
Assay conditions for cdk2/cyclin E were identical to those for cdk4/cyclin D1 including the substrate. The concentration of recombinant cdk2/cyclin E in the assay was 0.1 μg per 100 μl assay. Incubation was for 30 min at 30° C.

HT-29 = assay: In vitro tumor cell proliferation, HT-29; format: cell-based, human; details: many values given with an undefined *, read-out: In vitro Tumor Cell Proliferation (IC50, μM) Colon HT-29
Procedure, shortened: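 HT-29 cells seeded overnight at 37° C, then exposed to drug for 3 days, refed with fresh drug-containing medium for 4 more days. Proliferation read by sulforhodamine B staining after TCA fixation; alternatively by CyQUANT after freezing plates at −80° C following 3 days' drug exposure.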

Colo-205 = assay: In vitro tumor cell proliferation, Colo-205; format: cell-based; details: values given with an undefined *, read-out: In vitro Tumor Cell Proliferation (IC50, μM) Colon Colo-205
Procedure, shortened: as §1

MDA-MB-435 = assay: In vitro tumor cell proliferation, MDA-MB-435; format: cell-based; details: values given with an undefined *, read-out: In vitro Tumor Cell Proliferation (IC50, μM) Breast MDA-MB-435
Procedure, shortened: as §1

DU145 = assay: In vitro tumor cell proliferation, DU145; format: cell-based, human; details: many values given with an undefined *, read-out: In vitro Tumor Cell Proliferation (IC50, μM) Prostate DU145
Procedure, shortened: as §1

[1] = Homo sapiens, MDA-MB-231, MDA-MB-231
[2] = Homo sapiens, COLO 205, Colo-205
[3] = Homo sapiens, MDA-MB-435, MDA-MB-435

Structure (SMILES)	IC50 (cdk4/cyclin D1)	IC50 (A549; A549, trihydrochloride) [µM]	IC50 (A549; Homo sapiens, A549, A549) [µM]	IC50 (PC-3; Homo sapiens, PC-3, PC-3) [µM]	IC50 (PC-3; PC-3, trihydrochloride) [µM]	IC50 (DMS-114; DMS-114, trihydrochloride) [µM]	IC50 (DMS-114; Homo sapiens, DMS-114, DMS-114) [µM]	IC50 (MDA-MB-231; [1]) [µM]	IC50 (MDA-MB-231; MDA-MB-231, trihydrochloride) [µM]	IC50 (cdk2/cyclin E)	IC50 (HT-29; HT-29, trihydrochloride) [µM]	IC50 (HT-29; Homo sapiens, HT-29, HT-29) [µM]	IC50 (Colo-205; Colo-205, trihydrochloride) [µM]	IC50 (Colo-205; [2]) [µM]	IC50 (MDA-MB-435; [3]) [µM]	IC50 (MDA-MB-435; MDA-MB-435, trihydrochloride) [µM]	IC50 (DU145; DU145, trihydrochloride) [µM]	IC50 (DU145; Homo sapiens, DU-145, DU145) [µM]
N[C@H]1CC[C@H](Nc2nc(NC3CCN(Cc4ccc(Cl)c(Cl)c4)CC3)c3ncn(C4CCCC4)c3n2)CC1 [Example 147-o, 2-[Trans-(4-aminocyclohexyl)amino]-6-[4-[1-(3,4-dichlorobenzyl)]piperidinylamino]-9-cyclopentylpurine trihydrochloride]	1800 nM	0.44	0.42	0.64	0.92	0.71	0.78	0.77	0.9	200 nM and 160 nM	0.77	0.83	0.45	0.63	0.92	1.1	0.69	0.76
N[C@H]1CC[C@H](Nc2nc(NC3CCN(Cc4ccc5ccccc5c4)CC3)c3ncn(C4CCCC4)c3n2)CC1 [Example 147-p, 2-[Trans-(4-aminocyclohexyl)amino]-6-[4-[1-(2-naphthyl)methyl]piperidinylamino]-9-cyclopentylpurine trihydrochloride]	3100 nM and 3900 nM	0.34	0.39	0.46	0.66	0.68	0.91	0.57	0.6	300 nM and 110 nM and 360 nM	0.72	0.71	0.48	0.45	0.59	0.68	–	0.54
N[C@H]1CC[C@H](Nc2nc(NC3CCN(Cc4cc(Cl)ccc4Cl)CC3)c3ncn(C4CCCC4)c3n2)CC1 [Example 147-r, 2-[Trans-(4-aminocyclohexyl)amino]-6-[4-[1-(2,5-dichlorobenzyl)]piperidinylamino]-9-cyclopentylpurine trihydrochloride]	7200 nM and 4300 nM	–	0.33	0.39	0.55	0.48	0.62	–	0.48	90 nM and 580 nM and 550 nM and 610 nM	0.47	0.49	0.38	0.32	0.6	0.65	0.4	0.45
N[C@H]1CC[C@H](Nc2nc(NC3CCN(CC4CCCCC4)CC3)c3ncn(C4CCCC4)c3n2)CC1 [Example 147-s, 2-[Trans-(4-aminocyclohexyl)amino]-6-[4-(1-cyclohexylmethyl)piperidinylamino]-9-cyclopentylpurine trihydrochloride]	1300 nM and 620 nM	0.2	0.22	–	0.37	0.3	0.57	–	0.33	120 nM and 100 nM	0.33	0.35	0.23	0.28	0.42	0.43	0.27	0.29
N[C@H]1CC[C@H](Nc2nc(NC3CCN(Cc4ccc(F)cc4Cl)CC3)c3ncn(C4CCCC4)c3n2)CC1 [Example 147-t, 2-[Trans-(4-aminocyclohexyl)amino]-6-[4-[1-(2-chloro-4-fluorobenzyl)]piperidinylamino]-9-cyclopentylpurine trihydrochloride]	2200 nM and 1700 nM	0.28	0.3	0.37	0.45	0.46	0.71	0.37	–	250 nM and 160 nM and 340 nM	0.48	0.42	0.36	–	0.41	0.69	0.38	0.33
N[C@H]1CC[C@H](Nc2nc(NC3CCN(Cc4ccc(F)c(F)c4)CC3)c3ncn(C4CCCC4)c3n2)CC1 [Example 147-u, 2-[Trans-(4-aminocyclohexyl)amino]-6-[4-[1-(3,4-difluorobenzyl)]piperidinylamino]-9-cyclopentylpurine trihydrochloride]	2800 nM and 2600 nM	0.19	0.27	0.35	0.43	0.35	0.62	0.33	0.36	150 nM and 110 nM	0.33	0.41	0.22	0.28	0.47	0.48	0.28	0.38
